Patent US8003634B2, “Analogs of benzoquinone-containing ansamycins and methods of use thereof” (Infinity Pharmaceuticals, Inc., priority 2003, dated 2011)
pEC50, pIC50: −log10 of the molar value. Structures can show the parent of a compound that is named as a salt. Where two headings read alike, the source gives them in different places.

Tests used:
[1] = system: MM1.s cells; experiment: MM1.s cell cytotoxicity, Alamar Blue assay; assay type: cell-based; details: Homo sapiens, 72 h
Protocol: (§1) The human cancer cell lines SKBr3, MV4-11, K562, SK-MEL-28, LnCAP, and MDA-MB-468 were obtained from the American Type Culture Collection (Manassas, Va.). The multiple myeloma RPMI-8226 and MM1.s cells were from Dr. Teru Hideshima (Jerome Lipper Multiple Myeloma Center, Dana Farber Cancer Institute, Boston, Mass., USA.). All the cell lines were determined to be mycoplasma-free. The cells were maintained in RPMI-1640 medium supplemented with 10% heat-inactivated FBS, 50 units/mL streptomycin and 50 units/mL penicillin, and incubated at 37° C. in 5% CO2. Adherent cells were dissociated with 0.05% trypsin and 0.02% EDTA in phosphate buffer saline (PBS) without calcium and magnesium prior to plating for experimentation.
Alamar Blue assay. MM1.s cells (50,000/well) were incubated for 72 h with increasing concentrations of the test compound. Alamar blue was added to the wells and fluorescence measured 4 h after incubation at 37° C.

[2] = system: SKBr3 cells; experiment: SKBr3 cell cytotoxicity, Alamar blue; assay type: cell-based; details: Homo sapiens, SK-BR-3, 72 h
Protocol: as §1
SKBr3 Cells were incubated for 72 h with increasing concentrations of the test compound. For the viability studies Alamar blue was added and wells read after a 6 h incubation.

[3] = system: MDA-MB-468 cells; experiment: MDA-MB-468 cell cytotoxicity, Alamar blue; assay type: cell-based; details: Homo sapiens, 72 h
Protocol: as §1
MDA-MB-468 Cells were incubated for 72 h with increasing concentrations of the test compound. For the viability studies Alamar blue was added and wells read after 6 h of incubation.

[4] = system: MV4-11 cells; experiment: MV4-11 cell cytotoxicity, Alamar blue; assay type: cell-based; details: Homo sapiens, 72 h, 3 days
Protocol: as §1
MV4-11 cells were incubated for 3 days with increasing concentrations of the test compound. Cell viability was assessed using an Alamar blue read out.

[5] = system: K562 cells; experiment: K562 cell cytotoxicity, Alamar blue; assay type: cell-based; details: Homo sapiens
Protocol: as §1
K562 cells were incubated with increasing concentrations of the test compound. Cell viability was assessed using an Alamar blue read out

[6] = system: SK-MEL-28 cells; experiment: SK-MEL-28 cell cytotoxicity, Alamar blue; assay type: cell-based; details: Homo sapiens, SK-MEL-28 cells, 2, 3 or 4 days
Protocol: as §1
Increasing concentrations of the test compound was added to SK-MEL-28 cells in culture for 2, 3 or 4 days and the viability of the cells was measured using Alamar blue.

[7] = system: LnCAP cells; experiment: LnCAP cell cytotoxicity, Alamar blue; assay type: cell-based; details: Homo sapiens, 96 h, 4 days
Protocol: as §1
Increasing concentrations of the test compound added to LnCAP cells in culture for 4 days and the viability of the cells was measured using Alamar blue.

[8] = system: human multiple myeloma cell line RPMI-8226; experiment: Multiple myeloma model, subcutaneous RPMI-8226 tumors; assay type: in vivo; details: RPMI-8226 s.c. in male SCID/NOD mice; 100 mg/kg IV three consecutive days per week; after 45 days
Protocol: The effects of the test compound were studied in a human multiple myeloma cell line RPMI-8226 in male SCID/NOD mice. In this study, male mice were implanted subcutaneously with RPMI-8226 cells (1×10^7 cells). When the average tumor size reached 100 mm^3, animals were randomly assigned to treatment groups (N=10-15/group) to receive either vehicle (50 mM citrate, 50 mM ascorbate, 2.4 mM EDTA adjusted to pH 3.0) or 100 mg/kg (300 mg/m^2) of the test compound three consecutive days per week. The test article or vehicle was administered intravenously (IV) via the tail vein in a volume of 0.2 mL over approximately 20 seconds (sec). The animals were sacrificed after 45 days and tumor volumes compared.
(§2) The results from the biological activity analysis of the hydroquinones of the invention are presented below. All values are expressed as the mean±SEM. Data analysis consisted of a one way analysis of variance and if appropriate followed by Dunnets test to assess differences between vehicle and treatment groups. Differences are considered significant at p<0.05.

[9] = system: MDA-MB-468 breast carcinoma; experiment: Breast carcinoma model, subcutaneous MDA-MB-468 tumors; assay type: in vivo; details: MDA-MB-468 s.c. in female nu/nu athymic mice; 100 mg/kg IV twice weekly; after 120 days
Protocol: A study was performed in the MDA-MB-468 breast carcinoma model to assess the ability of the test compound to reduce subcutaneous tumor burden. In this study, female nu/nu athymic mice were implanted subcutaneously with MDA-MB-468 cells (1×10^7 cells). When the average tumor size reached 100 mm^3, animals were randomly assigned (N=10-15/group) to one of the following treatment groups; vehicle or the test compound at 100 mg/kg (300 mg/m^2) twice weekly every week. The test article or vehicle was administered intravenously (IV) via the tail vein in a volume of 0.2 mL over approximately 20 seconds (sec). The animals were sacrificed after 120 days and tumor volumes compared.
as §2

[10] = system: SKOV-3 cells; experiment: Ovarian carcinoma model, SKOV-3 xenograft; assay type: in vivo; details: SKOV-3 s.c. in female nu/nu athymic mice; 100 mg/kg IV twice weekly; after 88 days
Protocol: A study was performed in the SKOV-3 ovarian mouse xenograft model to assess the ability of the test compound to reduce subcutaneous tumor burden. In this study, female nu/nu athymic mice were implanted subcutaneously with SKOV-3 cells (1×10^7 cells). When the average tumor size reached 100 mm^3, animals were randomly assigned to treatment groups (N=10-15/group) to receive either vehicle, the test compound at 100 mg/kg (300 mg/m^2) twice weekly. The test article or vehicle was administered intravenously (IV) via the tail vein in a volume of 0.1 mL over approximately 10 seconds (sec). The animals were sacrificed after 88 days and tumor volumes compared.
as §2

[11] = system: Lewis lung cells; experiment: Murine Lewis lung model; assay type: in vivo; details: Lewis lung cells s.c. in C57B1/6 mice; 75 mg/m^2 MWF for 3 cycles, tail vein; after 25 days
Protocol: A study was performed in the mouse Lewis lung model to assess the ability of the compounds of the present invention to reduce both subcutaneous tumor burden as well as the incidence of lung metastasis. In this study C57B1/6 mice were implanted subcutaneously with Lewis lung cells (1×10^6 cells). When the average tumor size reached 71 mm^3 animals (N=10-15/group) were randomly assigned to the following treatment groups: vehicle and compound 15 75 mg/m^2 Monday, Wednesday and Friday (MWF) for 3 cycles. Each cycle consisted of […] of treatment. The test article or vehicle was administered via the tail vein in a volume of 0.2 mL over approximately 30 sec. The animals were sacrificed after 25 days and tumor volumes were compared.
as §2

[12] = system: PC-3 cells; experiment: Prostate carcinoma, PC-3 xenograft models; assay type: in vivo; details: PC-3 s.c. in male nu/nu athymic mice; single agent 100 mg/kg twice weekly; after 64 days
Protocol: Two studies were performed in mouse PC-3 prostate xenograft models to assess the ability of the test compound to reduce subcutaneous tumor burden as a single agent or in combination with current standard of care. In both studies male nu/nu athymic mice were implanted subcutaneously with PC-3 cells (1×10^7 cells). When the average tumor size reached 100 mm^3 animals were randomly assigned to treatment groups (N=10-15/group). In the first study mice received either vehicle, the test compound 100 mg/kg (300 mg/m^2) twice weekly. The test article or vehicle was administered via the tail vein in a volume of 0.2 mL over approximately 20 sec. The animals were sacrificed after 64 days and tumor volumes compared.
A second study was performed in this model to assess the test compound in combination with the standard of care, Taxotere. […] The animals were sacrificed after 64 days and tumor volumes compared.

[13] = system: Native human Hsp90 protein isolated from HeLa cells; experiment: Competitive binding to HSP90, fluorescence polarization assay with BODIPY-GDM; details: competitive binding experiment
Protocol: A 20 nM BODIPY-GDM solution was freshly prepared in FP binding assay buffer [20 mM HEPES-KOH, pH 7.3, 1.0 mM EDTA, 100 mM potassium chloride, 5.0 mM magnesium chloride, 0.01% NP-40, 0.1 mg/mL Bovine γ-globulin (BGG), 1.0 mM DTT, and Complete™ protease inhibitor] from a 20 μM stock solution in DMSO. […] After 3-h incubation at 30° C., fluorescence anisotropy was measured on an EnVision 2100 multilabel plate reader equipped with a 485 nm excitation filter and a 535 nm P/S emission filter (Perkin Elmer, Boston, Mass.).
A dilution series for each compound was freshly prepared in FP binding assay buffer from 20 μM to 0.20 nM. […] After 3-h incubation at 30° C., fluorescence anisotropy was measured on an EnVision 2100 plate reader.
Assays were performed under nitrogen atmosphere in a LabMaster glove box (M. Braun, Stratham, N H). […] After 3-h incubation at 30° C., the microplate was brought out of the glove box, and fluorescence anisotropy was immediately measured on an EnVision 2100 plate reader.
Binding of BODIPY-GDM to Hsp90 results in simultaneous increases in fluorescence anisotropy (FA) and intensity (FI). […]
[formula] with Hill coefficient forced to 1 for simplicity. From the values of FImax (bound ligand) and FImin (free ligand), a Q factor is calculated by: […]
[formula] and FA being expressed as the weighted sum of contributions from the free and bound forms of ligand: […]

[14] = physchem; details: water / aqueous solutions
[15] = system: NCI 60 tumor cell line panel; details: Developmental Therapeutics Program Website, read-out: mean IC50 over all cell lines in the panel; cited from earlier work
[16] = water / aqueous solutions

Row | Compound | pEC50 [1] | pEC50 [2] | pEC50 [3] | pEC50 [4] | pEC50 [5] | pEC50 [6] | pEC50 [7] | % Tumor Growth Compared to Vehicle [8] | % Tumor Growth Compared to Vehicle [9] | % Tumor Growth Compared to Vehicle [10] | % Tumor Growth Compared to Vehicle [11] | % Tumor Growth Compared to Vehicle [12] | HSP90 inhibition (summary in words) [13] | solubility [14] | pIC50 [15] | solubility [16]
1 | C=CCNc1c(O)cc2c(O)c1C[C@@H](C)C[C@H](OC)[C@H](O)[C@@H](C)/C=C(\C)[C@H](OC(N)=O)[C@@H](OC)/C=C\C=C(/C)C(=O)N2 [Compound 15, HCl Salt of the Hydroquinone of 17-AAG] | 6.51 | 7.49 | 6.47 | 7.60 | 7.54 | 6.70 | 7.14 | 71% | 76% | 59% | 60% | 50% | active HSP90 inhibitors | > 200 mg/mL |  | 
2 | C=CCNC1=C2C[C@@H](C)C[C@H](OC)[C@H](O)[C@@H](C)/C=C(\C)[C@H](OC(N)=O)[C@@H](OC)/C=C\C=C(/C)C(=O)NC(=CC1=O)C2=O [Compound 17-AAG, 17-allylamino-17-demethoxygeldanamycin, reference compound] | 6.51 | 7.47 | 6.45 | 7.42 | 7.30 |  |  |  |  |  |  |  |  |  | 6.92 | 
3 | C=CCNc1c(O)cc2c(O)c1C[C@@H](C)C[C@H](OC)[C@H](O)[C@@H](C)/C=C(\C)[C@H](OC(N)=O)[C@@H](OC)/C=C\C=C(/C)C(=O)N2 [hydroquinone of 17-AAG, 17-allylamino-18,21-dihydro-17-demethoxygeldanamycin] |  |  |  |  |  |  |  |  |  |  |  |  |  |  |  | 1 to 3 mg/mL
